According to PubChem BioAssay (NCI):
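Each compound was tested at five concentrations against cells in 96-well plates for 48 hours. Definition used: TGI = concentration required for complete inhibition of growth.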

Tests used:
Experiment in all cases: inhibition of tumour cell growth, NCI panel, 48 h
[1] = test system: NCI-H226 lung
[2] = test system: HOP-92 NSCLC
[3] = test system: LXFL 529 NSCLC
[4] = test system: TK-10 renal
[5] = test system: NCI-H23 lung
[6] = test system: IGROV1 ovarian
[7] = test system: LOX IMVI melanoma
[8] = test system: DLD-1 colon
[9] = test system: MALME-3M melanoma
[10] = test system: M14 melanoma
[11] = test system: SK-MEL-28 melanoma
[12] = test system: RXF 393 renal
[13] = test system: SN12C renal
[14] = test system: NCI-H522 lung
[15] = test system: SK-OV-3 ovarian
[16] = test system: SNB-78 CNS
[17] = test system: HCT-116 colon
[18] = test system: DMS 273 small cell lung
[19] = test system: SK-MEL-5 melanoma
[20] = test system: MOLT-4 leukemia
[21] = test system: EKVX NSCLC
[22] = test system: CCRF-CEM leukemia
[23] = test system: OVCAR-5 ovarian
[24] = test system: SF-268 CNS
[25] = test system: HOP-62 NSCLC
[26] = test system: A549 NSCLC
[27] = test system: SK-MEL-2 melanoma
[28] = test system: OVCAR-4 ovarian
[29] = test system: K-562 leukemia
[30] = test system: OVCAR-8 ovarian
[31] = test system: SW-620 colon
[32] = test system: HCT-15 colon
[33] = test system: SF-295 CNS
[34] = test system: HCC-2998 colon
[35] = test system: KM20L2 colon
[36] = test system: SR leukemia
[37] = test system: KM12 colon
[38] = test system: COLO 205 colon
[39] = test system: M19-MEL melanoma
[40] = test system: XF 498 CNS
[41] = test system: DMS 114 small cell lung
[42] = test system: ACHN renal
[43] = test system: CAKI-1 renal
[44] = test system: UO-31 renal
[45] = test system: U251 CNS
[46] = test system: UACC-62 melanoma
[47] = test system: SNB-19 CNS
[48] = test system: SF-539 CNS
[49] = test system: OVCAR-3 ovarian
[50] = test system: RPMI-8226 leukemia
[51] = test system: 786-0 renal
[52] = test system: HT29 colon
[53] = test system: SNB-75 CNS
[54] = test system: UACC-257 melanoma
[55] = test system: HL-60(TB) leukemia
[56] = test system: A498 renal
[57] = test system: NCI-H460 lung
[58] = test system: HOP-18 NSCLC
[59] = test system: RXF-631 renal

N#CCCN(CCC#N)c1ccc(/C=C2\N=C(c3cc([N+](=O)[O-])ccc3Cl)N(NC(=O)CC(=O)Nc3ccccc3Cl)C2=O)cc1
TGI [1]: 35.6 µM | TGI [2]: > 100 µM | TGI [3]: > 100 µM | TGI [4]: > 100 µM | TGI [5]: > 100 µM | TGI [6]: > 100 µM | TGI [7]: > 100 µM | TGI [8]: > 100 µM | TGI [9]: > 100 µM | TGI [10]: > 100 µM | TGI [11]: > 100 µM | TGI [12]: > 100 µM | TGI [13]: > 100 µM | TGI [14]: > 100 µM | TGI [15]: > 100 µM | TGI [16]: > 100 µM | TGI [17]: > 100 µM | TGI [18]: > 100 µM | TGI [19]: > 100 µM | TGI [20]: > 100 µM | TGI [21]: > 100 µM | TGI [22]: > 100 µM | TGI [23]: 66.5 µM | TGI [24]: > 100 µM | TGI [25]: > 100 µM | TGI [26]: > 100 µM | TGI [27]: > 100 µM | TGI [28]: > 100 µM | TGI [29]: > 100 µM | TGI [30]: > 100 µM | TGI [31]: > 100 µM | TGI [32]: > 100 µM | TGI [33]: > 100 µM | TGI [34]: > 100 µM | TGI [35]: 34.5 µM | TGI [36]: > 100 µM | TGI [37]: > 100 µM | TGI [38]: > 100 µM | TGI [39]: > 100 µM | TGI [40]: > 100 µM | TGI [41]: > 100 µM | TGI [42]: > 100 µM | TGI [43]: > 100 µM | TGI [44]: > 100 µM | TGI [45]: > 100 µM | TGI [46]: > 100 µM | TGI [47]: > 100 µM | TGI [48]: > 100 µM | TGI [49]: > 100 µM | TGI [50]: > 100 µM

Cc1c(C2Cc3ccccc3N2)c2ccccc2n1C (stereo not given)
TGI [1]: > 100 µM | TGI [3]: > 100 µM | TGI [4]: > 100 µM | TGI [5]: > 100 µM | TGI [6]: > 100 µM | TGI [7]: > 100 µM | TGI [8]: > 100 µM | TGI [9]: > 100 µM | TGI [10]: > 100 µM | TGI [12]: > 100 µM | TGI [13]: > 100 µM | TGI [14]: > 100 µM | TGI [51]: > 100 µM | TGI [15]: > 100 µM | TGI [16]: > 100 µM | TGI [17]: > 100 µM | TGI [18]: > 100 µM | TGI [19]: > 100 µM | TGI [52]: > 100 µM | TGI [20]: > 100 µM | TGI [21]: > 100 µM | TGI [22]: > 100 µM | TGI [23]: > 100 µM | TGI [53]: > 100 µM | TGI [54]: > 100 µM | TGI [24]: > 100 µM | TGI [25]: > 100 µM | TGI [26]: > 100 µM | TGI [27]: > 100 µM | TGI [28]: > 100 µM | TGI [29]: > 100 µM | TGI [30]: > 100 µM | TGI [31]: > 100 µM | TGI [55]: > 100 µM | TGI [32]: > 100 µM | TGI [33]: > 100 µM | TGI [34]: > 100 µM | TGI [35]: > 100 µM | TGI [36]: > 100 µM | TGI [37]: > 100 µM | TGI [38]: > 100 µM | TGI [39]: > 100 µM | TGI [40]: > 100 µM | TGI [41]: > 100 µM | TGI [42]: > 100 µM | TGI [56]: > 100 µM | TGI [43]: > 100 µM | TGI [44]: > 100 µM | TGI [45]: > 100 µM | TGI [46]: > 100 µM | TGI [47]: > 100 µM | TGI [48]: > 100 µM | TGI [49]: > 100 µM | TGI [57]: > 100 µM

CC(=O)ON(C(C)=O)C1C(COC(c2ccccc2)(c2ccccc2)c2ccccc2)OC2OC3(CCCC3)OC21 (stereo not given)
TGI [1]: > 100 µM | TGI [2]: 8.27 µM | TGI [4]: > 100 µM | TGI [5]: > 100 µM | TGI [6]: > 100 µM | TGI [7]: 21.3 µM | TGI [8]: > 100 µM | TGI [9]: > 100 µM | TGI [10]: > 100 µM | TGI [11]: > 100 µM | TGI [12]: 60.4 µM | TGI [13]: > 100 µM | TGI [14]: 6.26 µM | TGI [51]: > 75.2 µM | TGI [15]: > 100 µM | TGI [17]: > 100 µM | TGI [18]: > 100 µM | TGI [19]: > 100 µM | TGI [52]: > 100 µM | TGI [20]: > 31 µM | TGI [21]: > 100 µM | TGI [22]: > 100 µM | TGI [23]: > 100 µM | TGI [53]: > 100 µM | TGI [54]: > 100 µM | TGI [24]: > 100 µM | TGI [25]: > 100 µM | TGI [26]: > 100 µM | TGI [27]: > 100 µM | TGI [28]: > 100 µM | TGI [29]: > 100 µM | TGI [30]: > 100 µM | TGI [31]: > 100 µM | TGI [55]: > 100 µM | TGI [32]: > 100 µM | TGI [33]: > 100 µM | TGI [34]: > 100 µM | TGI [58]: > 100 µM | TGI [35]: > 100 µM | TGI [36]: > 100 µM | TGI [37]: > 100 µM | TGI [38]: > 100 µM | TGI [39]: > 100 µM | TGI [40]: > 100 µM | TGI [41]: > 100 µM | TGI [42]: > 100 µM | TGI [56]: > 100 µM | TGI [43]: > 100 µM | TGI [44]: > 100 µM | TGI [45]: > 100 µM | TGI [46]: > 100 µM | TGI [47]: > 100 µM | TGI [48]: > 100 µM | TGI [49]: > 100 µM | TGI [57]: > 100 µM | TGI [50]: 9.83 µM

COc1cc(/C=C\c2ccc(OC(C)=O)cc2)cc(OC)c1OC
TGI [1]: > 100 µM | TGI [2]: > 100 µM | TGI [3]: > 100 µM | TGI [5]: 13.2 µM | TGI [6]: > 100 µM | TGI [8]: > 100 µM | TGI [9]: > 100 µM | TGI [10]: > 100 µM | TGI [11]: 7.67 µM | TGI [13]: > 100 µM | TGI [14]: > 100 µM | TGI [51]: > 100 µM | TGI [15]: > 100 µM | TGI [16]: 84.1 µM | TGI [17]: > 100 µM | TGI [18]: > 100 µM | TGI [52]: > 100 µM | TGI [20]: > 100 µM | TGI [21]: > 100 µM | TGI [22]: > 100 µM | TGI [23]: > 100 µM | TGI [53]: 6.93 µM | TGI [54]: > 100 µM | TGI [24]: > 100 µM | TGI [25]: > 100 µM | TGI [26]: > 100 µM | TGI [27]: > 100 µM | TGI [28]: > 100 µM | TGI [29]: > 100 µM | TGI [30]: > 100 µM | TGI [31]: > 100 µM | TGI [34]: > 100 µM | TGI [59]: > 100 µM | TGI [35]: > 100 µM | TGI [36]: > 100 µM | TGI [37]: > 100 µM | TGI [38]: 94.2 µM | TGI [39]: > 100 µM | TGI [40]: 82.9 µM | TGI [41]: > 100 µM | TGI [42]: > 100 µM | TGI [56]: 78.4 µM | TGI [43]: > 100 µM | TGI [44]: 28.7 µM | TGI [45]: > 100 µM | TGI [46]: > 100 µM | TGI [47]: > 100 µM | TGI [49]: > 100 µM | TGI [57]: > 100 µM | TGI [50]: > 100 µM
